≈ marks a conversion by molar mass, not a printed value.
Experiments:
in vitro [1] = conditions: human, liver microsomes
Description: Half life in human liver microsomes at 1 uM incubated prior to NADPH addition by LC-MS/MS analysis

in vitro [2] = conditions: human, liver microsomes; remark: listed apart in the source
Description: Stability in human liver microsomes at 1 uM incubated prior to NADPH addition by LC-MS/MS analysis relative to hepatic blood flow

[3] = 168 h
Description: Chemical stability of the compound in MeOH/NH3 solution at pH >10 assessed as compound decomposition measured after 7 days by UV-RP-HPLC analysis

physchem [4] = conditions: octanol/water, pH 11
Description: Octanol/water partition coefficient, log D of the compound at pH 11

physchem [5] = conditions: pH 6.8 buffer
in vitro [6] = conditions: human, Caco-2
Description: Permeability across apical to basolateral side in human Caco2 cells measured up to 2 hrs by LC-MS/MS analysis or scintillation counting method

physchem [7] = conditions: pH 6.8 buffer; remark: listed apart in the source
[8] = Basic dissociation constant, pKb of the compound by UV absorption spectra analysis or potentiometric titration technique; type: physicochemical
in vitro [9] = conditions: human, Caco-2; remark: listed apart in the source
Description: Efflux ratio of permeability in human Caco2 cells measured up to 2 hrs by LC-MS/MS analysis or scintillation counting method

physchem [10] = conditions: MeOH/HCl solution
Description: Chemical stability of the compound in MeOH/HCl solution at pH <1 assessed as compound decomposition measured after 7 days by UV-RP-HPLC analysis

physchem [11] = conditions: octanol/water, pH 2
Description: Octanol/water partition coefficient, log D of the compound at pH 2

[12] = Chemical stability of the compound in MeOH/HCl solution at pH <1 assessed as compound decomposition measured after 1 day by UV-RP-HPLC analysis; type: physicochemical; conditions: read-out: Drug degradation
in vitro [13] = conditions: human, plasma
Description: Protein binding in human plasma

Compound	half-life at 1 µM (in vitro [1])	hepatic extraction ratio at 1 µM (in vitro [2])	Drug degradation [3]	logD (physchem [4])	solubility thermodynamic at 24 h (physchem [5])	Papp A→B at 2 h (in vitro [6])	solubility thermodynamic at 24 h (physchem [7])	pKb [8]	efflux ratio at 2 h (in vitro [9])	degraded at 168 h (physchem [10])	logD (physchem [11])	degraded at 24 h [12]	fraction unbound (in vitro [13])
CN1CCP(=O)(c2ccc(C(F)(F)F)cc2)CC1	> 2.17 h	< 0.23	< 10%	0.9	> 66 µg/mL	52 ×10⁻⁶ cm/s	> 30000 µg/mL	6.3	0.7	< 10%	0		
CN1CCN(C)P1(=O)c1ccc(C(F)(F)F)cc1			< 10%	2	> 64 µg/mL		> 30000 µg/mL					> 90%	
CCOP(=O)(O)c1ccc(C(=O)Nc2ccc(C)c(Nc3nccc(-c4cccnc4)n3)c2)cc1	> 2.17 h	< 0.23		-0.6	> 122 µg/mL	< 0.1 ×10⁻⁶ cm/s	1100 µg/mL (≈ 2250 µM)				1		0.046
Cc1ccc(NC(=O)c2ccc(P(C)(=O)O)cc2)cc1Nc1nccc(-c2cccnc2)n1	> 2.17 h	< 0.23		-0.6	> 115 µg/mL	< 0.1 ×10⁻⁶ cm/s	> 10000 µg/mL				0.6		0.119
CC(C)N1CCP(=O)(c2ccc(C(F)(F)F)cc2)CC1	> 2.17 h	< 0.23	< 10%	2	> 68 µg/mL	84 ×10⁻⁶ cm/s	23000 µg/mL (≈ 75300 µM)	7	0.5	< 10%	0.2		
CCOP(=O)(OCC)c1ccc(C(=O)Nc2ccc(C)c(Nc3nccc(-c4cccnc4)n3)c2)cc1	0.283 h	0.7		2.8	1 µg/mL (≈ 1.93 µM)	18 ×10⁻⁶ cm/s	< 1 µg/mL		1.6		1.5		0.019
O=P1(c2ccc(C(F)(F)F)cc2)NCCCN1	> 2.17 h	< 0.23	< 10%	1.1	> 61 µg/mL	42 ×10⁻⁶ cm/s	12300 µg/mL (≈ 46600 µM)		0.7			> 90%	
CN1CCCOP1(=O)c1ccc(C(F)(F)F)cc1 (stereo not drawn)	> 2.17 h	< 0.23	< 10%	1.9	53 µg/mL (≈ 190 µM)	64 ×10⁻⁶ cm/s	7500 µg/mL (≈ 26900 µM)		0.5		2.5	> 90%	
Cc1ccc(NC(=O)c2ccc(P(C)(C)=O)cc2)cc1Nc1nccc(-c2cccnc2)n1	> 2.17 h	< 0.23		1.5	77 µg/mL (≈ 168 µM)	0.1 ×10⁻⁶ cm/s	20 µg/mL (≈ 43.7 µM)		16		0.4		0.163
CN1CCCN(C)P1(=O)c1ccc(C(F)(F)F)cc1	> 2.17 h	< 0.23	< 10%	2.7	> 68 µg/mL	81 ×10⁻⁶ cm/s	11100 µg/mL (≈ 38000 µM)		0.5		3	> 90%	
Cc1ccc(NC(=O)c2ccc(P(=O)(O)O)cc2)cc1Nc1nccc(-c2cccnc2)n1	> 2.17 h	< 0.23		-1	> 115 µg/mL	< 0.3 ×10⁻⁶ cm/s	700 µg/mL (≈ 1520 µM)				0.4		0.021
